For data set [1], the system named is IL-4 release from D10.G4.1 cells. Nature of the data set: Inhibition of IL-4 release from D10.G4.1 cells (D10). The class given is cell-based. Conditions: D10 cells stimulated with anti-CD3 antibody, IL-4 ELISA of supernatants. As for the experimental part: (§1) To determine the effect of the compounds according to the invention on the said cytokines, the inhibition of the release of IL-2,IL-4 and IL-5 from T cells was investigated in vitro.
3 days after thawing and cultivating D10 cells in medium (RPMI-1640 with HEPES/10% FCS/2 mM glutamine/100 U/m penicillin/100 mg/m streptomycin and 50 μM mercaptoethanol) with Rat Stim™ (Collaborative Biomedical Products, Bedford Mass.) they are spun down, washed with medium without Rat Stim™, seeded at a concentration of 40,000 to 60,000 cells per well in a microtitre plate and incubated at 37° C./5% CO2/100% humidity for 3.5 hours. The substances to be tested are then applied in various concentrations in each case 50μ per well. The determinations of the maximum value and spontaneous value each receive 50μ of medium/0.4% DMSO.
After a further 30 minutes of incubation, stimulation is carried out with in each case 50μ of anti-CD3 antibody (145-2C11, Cedarlane Laboratories Limited, Hornby/Ontario) per well (final dilution 1:100). The determination of the spontaneous value receives 50μ of medium. After incubation overnight, the supernatants are measured in an IL-4 ELISA (Pharmingen: capture mab: 18031D; detection mab: 18042 D). The IC50 determination was analysed by a logit-log plot.

The subject of data set [2] is pulmonary infiltration of eosinophils. Nature of the data set: Inhibition of the late phase eosinophilia 24 h after challenge of actively sensitized guinea pigs by ovalbumin inhalation. Type of data set: in vivo, Dunkin-Hartley guinea pigs. Particulars: 10 mg/kg i.p. 2 h before challenge, bronchoalveolar lavage 24 h after ovalbumin challenge; for Eosinophils B = eosinophils in the substance-treated group with ovalbumin challenge: mean. As for the experimental part: The inhibition of the pulmonary infiltration of eosinophils by the substances is examined in an in vivo test on Dunkin-Hartley guinea pigs which have been actively sensitized against ovalbumin. The sensitization is effected by two subcutaneous injections of a suspension of 10 μg of ovalbumin together with 1 mg of aluminium hydroxide in 0.5 m of physiological saline as adjuvant at an interval of 14 days. 7 days after the second injection, the animals in the control group which are to be exposed to an ovalbumin aerosol are pretreated with mepyramine maleate (10 mg/kg i.p.) in order to protect from anaphylactic death. After 30 minutes, the animals are exposed in a plastic box for 30 sec to an ovalbumin aerosol (0.5 mg/m ) which is produced by an atomizer driven by compressed air (19.6 kPa). Control animals are exposed to an aerosol of physiological saline. 24 hours after the exposure to ovalbumin aerosol (challenge) the animals are anaesthetized with an overdose of ethylurethane (1.5 g/kg of body weight i.p.), and a bronchoalveolar lavage is carried out with 2×5 m of physiological saline. The lavage fluid is collected and centrifuged at 300 rpm for 10 min, and then the cell pellet is resuspended in 1 m of physiological saline. The eosinophils are stained using the Becton-Dickinson test kit (N.5877) for eosinophils and are counted in a Neubauer chamber. Each test includes 2 control groups (exposure to a physiological saline aerosol and exposure to an ovalbumin solution aerosol).
The test substances are administered intraperitoneally or orally as suspension in 10% polyethylene glycol 300 and 0.5% strength 5-hydroxyethylcellulose 2 hours before the allergen challenge. The control groups are treated with the vehicle in a form corresponding to the administration of the test substance. The number of animals in each control and test group is 3-10.

Data set [3] relates to IL-5 release from D10.G4.1 cells. Nature of the data set: Inhibition of IL-5 release from D10.G4.1 cells (D10). Type of data set: cell-based. Conditions: D10 cells stimulated with anti-CD3 antibody, IL-5 ELISA of supernatants. The method, then: as §1
3 days after thawing and cultivating D10 cells in medium (RPMI-1640 with HEPES/10% FCS/2 mM glutamine/100 U/m penicillin/100 mg/m streptomycin and 50 μM mercaptoethanol) with Rat Stirm™ (Collaborative Biomedical Products, Bedford Mass.) they are spun down, washed with medium without Rat Stim™, seeded at a concentration of 40,000 to 60,000 cells per well in a microtitre plate and incubated at 37° C./5% CO2/100% humidity for 3.5 hours. The substances to be tested are then applied in various concentrations in each case 50μ per well. The determinations of the maximum value and spontaneous value each receive 50μ d of medium/0.4% DMSO. After a further 30 minutes of incubation, stimulation is carried out with in each case 50μ of anti-CD3 antibody (145-2C11, Cedarlane Laboratories Limited, Hornby/Ontario) per well (final dilution 1:100). The determination of the spontaneous value receives 50μ of medium. After incubation overnight, the supernatants are measured in an IL-5 ELISA (Pharmingen: capture mab: 18051D; detection mab: 18062 D). The IC50 determination was analysed by a logit-log plot.

Data set [4] relates to IL-2 release from Jurkat cells. Nature of the data set: Inhibition of IL-2 release from Jurkat cells. Conditions: Homo sapiens; Jurkat cells stimulated with ionomycin/PMA, IL-2 ELISA of supernatants. The class given is cell-based. As for the experimental part:
as §1
Jurkat cells (clone E6-1, batch F-12871, from ATCC, Rockville, Md.) are seeded at about 100,000 cells in 50μ per well in microtitre plates and preincubated in an incubator (5% CO2/37° C./100% humidity). The medium employed is RPMI-1640 with HEPES/10% FCS/2 mM glutamine/100 U/m penicillin/100 mg/m streptomycin and 50 μM mercaptoethanol. After 3 hours, the substances to be tested are applied in various concentrations (100μ per well). To determine the spontaneous value and maximum values, in each case only medium/0.2% DMSO is applied. 30 minutes after application of substance and incubation, stimulation is carried out with in each case 25μ of ionomycin (final concentration 1 μM, Sigma I-0634) and phorbol myristate acetate (PMA, final concentration 25 ng/m, Sigma P-8139) per well. The spontaneous value receives 50μ of medium in place of ionomycin/PMA. Incubation overnight is then carried out. The supernatants are measured undiluted in an IL-2 ELISA (Pharmingen, capture mab: 18951 D detection mab: 20672 D). The IC50 determination was analysed by a logit-log plot.
A general note: An ELISA detects its analyte on a solid surface through an enzyme-linked reagent.

The term IC50 denotes the concentration that inhibits the measured activity by half. In the case of `COc1c2c(c(O)c3c1C(=O)c1c(cc(O)c(C)c1O)C3=O)-c1c(cc3cn[nH]c(=O)c3c1O)CC2` [Compound 1, 10,12,15,16-Tetrahydroxy-8-methoxy-11-methyl-9,14-dioxo-6,7,9,14-tetrahydronaphthaceno[1,2-g]phthalazin-1-one], the half-inhibitory concentration (IC50) worked out at 0.86 µM in data set [1], 0.45 µM in data set [3] and 0.08 µM in data set [4]. Besides, in data set [2], the “Inhibition (of late phase eosinophilia)” value was determined as 112.4. The “Eosinophils B = eosinophils in the substance-treated group with ovalbumin challenge” value in data set [2] is 0.51 10^6/animal.
Take `COc1c2c(c(O)c3c1C(=O)c1c(O)cc(O)cc1C3=O)-c1c(cc3c(C)nn(C)c(=O)c3c1O)CC2` [Compound 2, 2-Methyl-10,12,15,16-tetrahydroxy-8-methoxy-1-methyl-9,14-dioxo-6,7,9,14-tetrahydronaphthaceno[1,2-g]phthalazin-1-one]: the IC50 in data set [1] is 1.46 µM; in data set [3] it was 0.88 µM.
As usually defined, the melting point is the temperature of the solid-liquid transition. Regarding `CCCn1ncc2cc3c(c(O)c2c1=O)-c1c(O)c2c(c(OC)c1CC3)C(=O)c1c(cc(O)c(C)c1O)C2=O` [Compound 3, 2-Propyl-10,12,15,16-tetrahydroxy-8-methoxy-11-methyl-9,14-dioxo-6,7,9,14-tetrahydronaphthaceno[1,2-g]phthalazin-1-one], the melting point is 350 to 351 °C. In data set [1], this molecule displayed an IC50 of 2.91 µM.
`COc1c2c(c(O)c3c1C(=O)c1c(cc(O)c(C)c1O)C3=O)-c1c(cc3cnn(CCO)c(=O)c3c1O)CC2` [Compound 4, 2-(2-Hydroxyethyl)-10,12,15,16-tetrahydroxy-8-methoxy-11-methyl-9,14-dioxo-6,7,9,14-tetrahydronaphthaceno[1,2-g]phthalazin-1-one] came in with a melting point greater than 300 °C.
In the case of `COc1c2c(c(O)c3c1C(=O)c1c(cc(O)c(C)c1O)C3=O)-c1c(cc3cnn(-c4ccccc4)c(=O)c3c1O)CC2` [Compound 5, 2-phenyl-10,12,15,16-tetrahydroxy-8-methoxy-11-methyl-9,14-dioxo-6,7,9, 14-tetrahydronaphthaceno[1,2-g]phthalazin-1-one], the “Inhibition (of late phase eosinophilia)” value in data set [2] is given as 85.0. Also, the “Eosinophils B = eosinophils in the substance-treated group with ovalbumin challenge” value in data set [2] is given as 0.85 10^6/animal. Besides, the results for the IC50 in data set [3] and in data set [4] were 0.43 µM and 0.2 µM, respectively.
Turning to `COc1c2c(c(O)c3c1C(=O)c1c(cc(O)c(C)c1O)C3=O)-c1c(cc3cnn(CCOC(C)=O)c(=O)c3c1O)CC2` [Compound 6, 2-(2-Acetoxyethyl)-10,12,15,16-tetrahydroxy-8-methoxy-11-methyl-9,14-dioxo-6,7,9,14-tetrahydronaphthaceno[1,2-g]phthalazin-1-one], the melting point was greater than 350 °C.
As to `COC(=O)Oc1cc2c(c(O)c1C)C(=O)c1c(OC)c3c(c(O)c1C2=O)-c1c(cc2cnn(-c4ccccc4)c(=O)c2c1O)CC3` [Compound 7, 2-Phenyl-10,15,16-trihydroxy-8-methoxy-12-methoxycarbonyloxy-11-methyl-9,14-dioxo-6,7,9,14-tetrahydronaphthaceno[1,2-g]phthalazin-1-one], the melting point is greater than 350 °C.
Consider `COc1c2c(c(O)c3c1C(=O)c1c(cc(O)c(C)c1O)C3=O)-c1c(cc3cnn(CCN)c(=O)c3c1O)CC2` [Compound 8, 2-(2-Aminoethyl)-10,12,15,16-tetrahydroxy-8-methoxy-11-methyl-9,14-dioxo-6,7,9,14-tetrahydronaphthaceno[1,2-g]phthalazin-1-one], for which the melting point is > 350 °C (dec.). Also, the IC50 in data set [1] was found to be 2.58 µM. In data set [3], this molecule showed an IC50 of 0.78 µM.
`Cc1c(O)cc2c(c1O)C(=O)c1c(O)c3c(c(O)c1C2=O)-c1c(cc2cnn(-c4ccccn4)c(=O)c2c1O)CC3` [Compound 9, 2-(2-Pyridyl)-8,10,12,15,16-pentahydroxy-11-methyl-9,14-dioxo-6,7,9,14-tetrahydronaphthaceno[1,2-g]phthalazin-1-one] yielded a melting point greater than 350 °C.
The molecule `Cc1c(O)cc2c(c1O)C(=O)c1c(O)c3c(c(O)c1C2=O)-c1c(cc2cnn(-c4ccccc4)c(=O)c2c1O)CC3` [Compound 10, 2-Phenyl-8,10,12,15,16-pentahydroxy-11-methyl-9,14-dioxo-6,7,9,14-tetrahydronaphthaceno[1,2-g]phthalazin-1-one] came in with a melting point greater than 350 °C.
Still for that read-out and setting: the value for `CCOC(Cn1ncc2cc3c(c(O)c2c1=O)-c1c(O)c2c(c(OC)c1CC3)C(=O)c1c(cc(O)c(C)c1O)C2=O)OCC` [Compound 11, 2-(2,2-Diethoxyethyl)-10,12,15,16-tetrahydroxy-8-methoxy-11-methyl-9,14-dioxo-6,7,9,14-tetrahydronaphthaceno[1,2-g]phthalazin-1-one] was 285 °C; that for `COc1c2c(c(OC(C)=O)c3c1C(=O)c1c(cc(OC(C)=O)c(C)c1OC(C)=O)C3=O)-c1c(cc3cnn(-c4ccccc4)c(=O)c3c1OC(C)=O)CC2` [Compound 12, 2-Phenyl-10,12,15,16-tetraacetoxy-8-methoxy-11-methyl-9,14-dioxo-6,7,9,14-tetrahydronaphthaceno[1,2-g]phthalazin-1-one] was 273 °C.
Turning to `COc1c2c(c(O)c3c1C(=O)c1c(cc(O)c(C)c1O)C3=O)-c1c(cc3cnn(-c4ncc[nH]4)c(=O)c3c1O)CC2` [Compound 15, 2-(2-Imidazolyl)-10,12,15,16-tetrahydroxy-8-methoxy-11-methyl-9,14-dioxo-6,7,9,14-tetrahydronaphthaceno[1,2-g]phthalazin-1-one], the melting point was > 350 °C (dec.).
On to `COc1c2c(c(O)c3c1C(=O)c1c(cc(O)c(C)c1O)C3=O)-c1c(cc3cnn(-c4ccccn4)c(=O)c3c1O)CC2` [Compound 16, 2-(2-Pyridyl)-10,12,15,16-tetrahydroxy-8-methoxy-11-methyl-9,14-dioxo-6,7,9,14-tetrahydronaphtbaceno[1,2-g]phthalazin-1-one], for which the IC50 in data set [3] came to 0.52 µM.
On to `C=CCc1cc2c(c(O)c1C)C(=O)c1c(OC)c3c(c(O)c1C2=O)-c1c(cc2cnn(-c4ccccc4)c(=O)c2c1O)CC3` [Compound 17, 2-Phenyl-12-allyl-10,15,16-trihydroxy-8-methoxy-11-methyl-9,14-dioxo-6,7,9,14-tetrahydronaphthaceno[1,2-g]phthalazin-1-one], for which the melting point turned out to be 163 °C.

The values above are taken from US6440968B1, “Use of maduraohtalazine derivatives as inhibitors of proinflammatory cytokines” (Elbion G.m.b.H., priority 1999, dated 2002).
